Experimental data reported in PMC12250628, “Pharmacokinetics of Cannabidiol in Rat Brain Tissue After Single-Dose Administration of Different Formulations” (Molecules, 2025).

Legend:
[1] = Locomotor behavior and cognitive performance of the studied animals after CBD administration; assay type: in vivo, rat; details: rats, single oral dose of 10 mg/kg CBD
[2] = set-up: method as in PMID 34330718, PMID 28861484; details: phase I CBD metabolites; cited from earlier work

SMILES	impact on locomotor behavior and cognitive performance [1]	pharmacological activity [2]
C=C(C)[C@@H]1CCC(C)=C[C@H]1c1c(O)cc(CCCCC)cc1O [CBD, cannabidiol]	no negative impacts on locomotor behavior and cognitive performance	–
C=C(C)[C@@H]1CCC(C(=O)O)=C[C@H]1c1c(O)cc(CCCCC)cc1O [Carrier 7-COOH-CBD, 7-carboxy-cannabidiol]	–	does not exhibit such activity anymore
C=C(C)[C@@H]1CCC(CO)=C[C@H]1c1c(O)cc(CCCCC)cc1O [Carrier 7-OH-CBD, 7-hydroxy-cannabidiol]	–	pharmacologically active
